Measured values taken from publication doi:10.1101/2024.12.25.630315 (bioRxiv, 2024).
Values belong to the molecule of their own block, whether it stands above or below them. Numbered stars: 1 amine (or outer) side, 2 acyl side, 3 side chain; on linkers, the order of the positions; unused ones are H or OH. Bridge positions count the residues as written; N and C are the ends. Square brackets hold non-standard residues; d marks the D form. Primed or numbered codes have the meaning given here. * marks the point of attachment. TATA = O=C(CC[*:1])N1CN(C(=O)CC[*:2])CN(C(=O)CC[*:3])C1; NOTA = O=C(O)CN1CCN(CC(=O)O)CCN(CC(=O)*)CC1; Hyp = O=C(O)[C@@H]1C[C@@H](O)CN1; hArg = N=C(N)NCCCC[C@H](N)C(=O)O; PEG12′ = not defined here

Tests used:
[1] = type: physicochemical
Experimental: The ^68Ge/^68Ga generator was manually eluted using […] of 0.1M HCl (Ultrapure trace-metal-free) in four different fractions (2.4 mL, 1 mL, 1 mL, and 1.4 mL). […] The reaction mixture was incubated for 12 min at 65 °C in a temperature-controlled heating block and purified on a RP-HPLC system using a semi-preparative C-18 Luna column ([…], 10 × 250 mm Phenomenex, Torrance, CA). The HPLC condition was gradient elution starting with 20% acetonitrile: water (0.1% formic acid) and reaching 60% acetonitrile: water (0.1% formic acid) in 20 min at a flow rate of 5 mL/min. […] The desired radiolabeled fraction was concentrated under a stream of N2 at 60 °C, formulated in 10% EtOH in saline, and used for in vitro and in vivo studies. The whole radiolabeling process was completed in approximately 35 min. Quality control, stability studies, and chemical identity were also performed on the same HPLC system using the same HPLC gradient as described above.

in vivo = details: male, mouse, iv, 1.85 MBq, total radioactivity
Experimental: All mouse studies were conducted through Johns Hopkins University Animal Care and Use Committee (ACUC) approved protocols. Protocol M021M175 was approved by Chair, ACUC. Xenografts were established in five-to-six-weeks old, male, non-obese, diabetic, severe-combined immunodeficient gamma (NSG) mice obtained from the Johns Hopkins University Immune Compromised Animal Core.
Mice were injected with cancer cells subcutaneously in […] PBS (top right flank) for all tumor models. Following cell numbers were used: HT1376 (4 M), UC9 (3 M), UC14 (3 M), RT112 (1.5 M), T24(3 M), SCaBER (4 M). Mice with tumor volumes of 100–200 mm^3 were used for all experiments. A minimum of 4 mice were used for all biodistribution studies. A minimum of 7 mice were used in pharmacodynamics experiment to account for greater variability.
To validate imaging studies, ex vivo biodistribution studies were conducted in mice with tumors of size 100–200 mm^3. Mice received ~50 μCi (1.85 MBq) of [^68Ga]AJ647 in […] of 5% ethanol in saline intravenously and mice were sacrificed at 5–180 min after [^68Ga]AJ647 injection for pharmacokinetic evaluation (n=4 per timepoint). In all other studies, 60 min time-point was chosen. Selected tissues (Blood, Skin, Muscle, Bone, Salivary glands, Tumor, Lungs, Heart, Liver, Pancreas, Spleen, Kidneys, Bladder, Testicles) were collected, weighed, counted, and their %IA/g values calculated as described previously (PMID: 37793856). For EV pharmacodynamics studies, fewer organs were harvested to accommodate more number of mice.

T24 cells = assay: In vitro binding of [^68Ga]AJ647 to T24 cells; type: cell-based; details: ~37 kBq (~1 μCi), 4°C, 1 hour, mean ± SD
Experimental: […] After incubation, cells were washed three times with ice cold PBS containing 0.1% Tween®20 and counted on an automated gamma counter. All cell radioactivity uptake studies were performed in quadruplicate for each cell line and repeated three times.

mouse Nectin-4 = molecular target: T1, mouse Nectin-4 (Mus musculus, UniProt Q8R007); assay: Surface plasmon resonance, mouse Nectin-4; type: binding; details: SPR Biacore T200, CM5 chip, 25 °C, His-tagged mouse Nectin-4 captured, PBS-P+1% DMSO, 1:1 kinetics fit; mean±SD n=3
T1 construct: purchased R&D systems 3116-N4–050
T1 sequence (Q8R007 31-347 limits assumed): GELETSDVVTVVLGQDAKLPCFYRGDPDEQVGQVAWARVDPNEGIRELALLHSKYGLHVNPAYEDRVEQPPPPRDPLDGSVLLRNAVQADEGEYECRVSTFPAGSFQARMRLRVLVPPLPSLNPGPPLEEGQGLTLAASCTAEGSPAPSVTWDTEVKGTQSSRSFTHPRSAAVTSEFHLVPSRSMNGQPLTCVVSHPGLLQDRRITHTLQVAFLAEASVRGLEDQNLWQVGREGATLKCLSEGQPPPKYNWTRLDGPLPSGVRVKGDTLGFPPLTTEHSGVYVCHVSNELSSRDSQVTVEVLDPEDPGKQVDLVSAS
Experimental: (§1) The affinity of AJ647 for human and mouse Nectin-4 recombinant proteins were evaluated by SPR. The experiments were conducted using a Biacore T200 instrument with a CM5 chip at 25 °C. The ligands used were His-Tagged human Nectin-4 (R&D systems, catalog # 2659-N4–050, 44 kDa, 0.2 mg/ml stock concentration) and mouse Nectin-4 proteins (R&D systems, catalog # 3116-N4–050, 45 kDa, 0.2 mg/ml stock concentration), which were immobilized onto the CM5 chip. AJ647 (3057.5 Da, 10 mM stock concentration) was used as the analyte, which flowed over the ligand immobilized surface. FC2 and FC4 was used as the experimental flow cell, while FC1 and FC3 served as the reference. Anti-His antibody (1 mg/ml stock concentration) was immobilized on all FCs using standard amine coupling chemistry. […] Human Nectin-4 was captured onto FC2 at a level of ~600 RU, with a 1:20 dilution and 10 μg/ml diluted concentration in PBS-P. Mouse Nectin-4 was captured onto FC4 at a level of 600 RU, with a 1:20 dilution and 10 μg/ml diluted concentration in PBS-P. The theoretical Rmax values were calculated based on the captured response values and are presented in table below, assuming a 1:1 interaction mechanism. […] All association and dissociation kinetics were evaluated by 1:1 kinetics model fitting.

human Nectin-4 = molecular target: T2, human Nectin-4 (Homo sapiens, UniProt Q96NY8); assay: Surface plasmon resonance, human Nectin-4; type: binding; details: SPR Biacore T200, CM5 chip, 25 °C, His-tagged human Nectin-4 captured, PBS-P+1% DMSO, 1:1 kinetics fit; mean±SD n=3
T2 construct: purchased R&D systems 2659-N4–050
T2 sequence (Q96NY8 32-349 limits assumed): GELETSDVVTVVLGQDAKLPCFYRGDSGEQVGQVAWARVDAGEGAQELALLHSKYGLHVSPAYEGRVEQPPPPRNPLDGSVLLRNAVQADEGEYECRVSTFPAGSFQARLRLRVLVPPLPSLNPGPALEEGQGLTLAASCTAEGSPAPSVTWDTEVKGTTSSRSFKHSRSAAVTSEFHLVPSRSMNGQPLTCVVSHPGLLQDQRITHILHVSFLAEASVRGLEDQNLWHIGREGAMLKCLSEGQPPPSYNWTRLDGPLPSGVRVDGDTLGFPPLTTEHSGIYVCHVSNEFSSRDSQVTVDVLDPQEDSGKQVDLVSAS
Experimental: as §1

Nectin-4 = details: cited from earlier work
Excerpt: A PEG linker was attached to the N-terminal cysteine residue of AJ632 (Fig. 2A). The free terminal amine was then conjugated to a NOTA chelator, enabling the successful radiolabeling with gallium-68 to produce [^68Ga]AJ647 and its non-radioactive analog [^natGa]AJ647. The radiolabeling process, performed as previously described ([16]), yielded [^68Ga]AJ647 with an 71.2±9.4% decay-corrected yield and 97±0.8% purity (n=20), ach ...

[2] = molecular target: T3, Nectin-4 on urothelial carcinoma cells (human (endogenous in HT1376, UC14, UC9, …, UniProt Q96NY8 32-510)); assay: flow cytometry on cells; competition: HT1376 cells with non-radioactive AJ647 5.4 uM to 0.01 nM for 30 min at 4 °C, washed, then EV-FITC for 30 min at 4 °C; mean fluorescence intensity as percent of 0 nM AJ647; details: one partner purified
T3 construct: Nectin-4, endogenous on the surface of urothelial carcinoma cell lines; also called cell surface Nectin-4; Nectin-4 receptor; source: endogenous, on HT1376, UC14, UC9, RT112 and SCaBER cells (and their xenografts)
T3 sequence (looked up): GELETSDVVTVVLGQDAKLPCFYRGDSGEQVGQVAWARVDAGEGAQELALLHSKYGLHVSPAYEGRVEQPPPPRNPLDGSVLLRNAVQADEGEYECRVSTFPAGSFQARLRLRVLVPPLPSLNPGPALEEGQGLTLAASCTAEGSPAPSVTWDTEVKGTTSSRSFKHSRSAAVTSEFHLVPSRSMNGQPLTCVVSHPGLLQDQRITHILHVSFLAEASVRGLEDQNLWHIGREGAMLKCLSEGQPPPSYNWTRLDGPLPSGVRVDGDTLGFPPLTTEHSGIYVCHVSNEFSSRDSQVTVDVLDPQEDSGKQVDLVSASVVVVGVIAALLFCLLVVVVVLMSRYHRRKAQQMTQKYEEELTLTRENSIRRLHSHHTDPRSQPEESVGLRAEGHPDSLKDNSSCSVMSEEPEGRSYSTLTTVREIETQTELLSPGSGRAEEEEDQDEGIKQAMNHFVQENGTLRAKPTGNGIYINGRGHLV

[3] = molecular target: T4, His-Tagged human Nectin-4 (human, UniProt Q96NY8 32-349); assay: SPR
T4 chain: T2 sequence (Q96NY8 32-349 limits assumed)

[4] = molecular target: T5, mouse Nectin-4 (recombinant) (mouse, UniProt Q8R007 31-347); assay: SPR
T5 chain: T1 sequence (Q8R007 31-347 limits assumed)

Kd (mouse Nectin-4): 14.1 ± 3.4 nM
Kd (human Nectin-4): 15 ± 10.1 nM
Molecule: CSCC[C@@H]1NC(=O)[C@@H]2CSCCC(=O)N3CN(CN(C3)C(=O)CCSC[C@H](NC(=O)CCOCCOCCOCCOCCOCCOCCOCCOCCOCCOCCOCCOCCNC(=O)CN3CCN(CC(=O)O)CCN(CC(=O)O)CC3)C(=O)N3CCC[C@H]3C(=O)N[C@@H](Cc3cccc4ccccc34)C(=O)N[C@@H](CC(=O)O)C(=O)N2)C(=O)CCSC[C@@H](C(N)=O)NC(=O)[C@H](Cc2c[nH]c3ccccc23)NC(=O)[C@@H]2C[C@@H](O)CN2C(=O)[C@@H]2CCCN2C(=O)[C@H]([C@@H](C)O)NC(=O)[C@H](CO)NC(=O)[C@H](Cc2c[nH]c3ccccc23)NC(=O)[C@@H](CC(=O)O)NC(=O)[C@H](CCCCNC(=N)N)NC1=O [[^natGa]AJ647, metal not drawn]

koff [3]: 0.0106 s⁻¹
koff [4]: 0.0101 s⁻¹
Molecule: {NOTA-PEG12′}-CP[Nal]DCM[hArg][dD]WSTP[Hyp]WC-NH2 (linker 1-5-15 via TATA; also: natGa complexed in NOTA) [[^natGa]AJ647]

Continued, molecule first:

Molecule: CSCC[C@@H]1NC(=O)[C@@H]2CSCCC(=O)N3CN(CN(C3)C(=O)CCSC[C@H](NC(=O)CCOCCOCCOCCOCCOCCOCCOCCOCCOCCOCCOCCOCCNC(=O)CN3CCN(CC(=O)O)CCN(CC(=O)O)CC3)C(=O)N3CCC[C@H]3C(=O)N[C@@H](Cc3cccc4ccccc34)C(=O)N[C@@H](CC(=O)O)C(=O)N2)C(=O)CCSC[C@@H](C(N)=O)NC(=O)[C@H](Cc2c[nH]c3ccccc23)NC(=O)[C@@H]2C[C@@H](O)CN2C(=O)[C@@H]2CCCN2C(=O)[C@H]([C@@H](C)O)NC(=O)[C@H](CO)NC(=O)[C@H](Cc2c[nH]c3ccccc23)NC(=O)[C@@H](CC(=O)O)NC(=O)[C@H](CCCCNC(=N)N)NC1=O [[^68Ga]AJ647, metal not drawn]
stability of [^68Ga]AJ647 confirmed [1]: up to 3 hours
tissue to tissue ratio at 0.25 h (in vivo; NSG): 1.31 ± 0.41
tissue to tissue ratio at 1 h (in vivo; NSG): 4.6 ± 1.07
tissue uptake at 2 h (in vivo; Adrenals %IA/g): 3.11 ± 0.21 %ID/g
tissue uptake at 3 h (in vivo; Adrenals %IA/g): 3.01 ± 0.27 %ID/g
tissue uptake at 3 h (in vivo; Brain %IA/g): 0.07 ± 0.01 %ID/g
tissue uptake at 3 h (in vivo; Kidney %IA/g): 24.8 ± 8.74 %ID/g
tissue uptake at 1 h (in vivo; Large Intestine %IA/g): 0.25 ± 0.13 %ID/g
tissue uptake at 2 h (in vivo; Large Intestine %IA/g): 0.18 ± 0.06 %ID/g
tissue uptake at 3 h (in vivo; Large Intestine %IA/g): 0.28 ± 0.13 %ID/g
tissue uptake at 1 h (in vivo; Testicles %IA/g): 0.71 ± 0.24 %ID/g
[^68Ga]AJ647 binding (percent incubated activity) (T24 cells): 0.2±0.11 %IA

Molecule: NH2-PEG12-(Cys-Pro-Nal-Asp-Cys-Met-hArg-dAsp-Trp-Ser-Thr-Pro-Hyp-Trp-Cys)-TATA based cyclization (bicyclic or more) [AJ632]
affinity to Nectin-4 (Nectin-4): low nanomolar

Molecule: {NOTA-PEG12′}-CP[Nal]DCM[hArg][dD]WSTP[Hyp]WC-NH2 (linker 1-5-15 via TATA) [AJ647]
IC50 [2]: 35 nM
